Measured values as given in US12310940B2, “Cell-permeable succinate compounds” (ABLIVA AB, priority 2014, dated 2025).
Entries after “also recorded” stand apart in the source; their conditions may differ.

Columns and labels:
Intact human blood cells = experiment: Screening assay (4): enhancement of mitochondrial energy producing function in cells with inhibited respiratory complex I in human plasma; format: cell-based; design: key: graded either +, ++ or +++ in increasing order of potency; graded either +, ++ or +++ in increasing order of potency; graded either +, ++ or +++ in increasing order of potency; (+): Brackets [( )] indicate an intermediate effect; (++): Brackets [( )] indicate an intermediate effect; (+++) is between ++ and +++; settings: increase in mitochondrial oxygen consumption in cells with inhibited complex I incubated in human plasma
Description: Measurement of mitochondrial respiration is performed in a high-resolution oxygraph (Oxygraph-2k, Oroboros Instruments, Innsbruck, Austria) at a constant temperature of 37° C. […] Intact human blood cells are incubated in plasma from the same donor. […] The experiment is terminated by addition of Antimycin at final concentration 1 μg/mL and any residual non-mitochondrial oxygen consumption is measured.

[1] = system: cells with inhibited complex I; experiment: Screening assay (1): enhancement of mitochondrial energy producing function in cells with inhibited respiratory complex I (high-resolution respirometry); format: cell-based, human; design: key: graded either +, ++ or +++ in increasing order of potency; graded either +, ++ or +++ in increasing order of potency; graded either +, ++ or +++ in increasing order of potency; (+): Brackets [( )] indicate an intermediate effect; (++): Brackets [( )] indicate an intermediate effect; (+++) is between ++ and +++; settings: increase in mitochondrial oxygen consumption in cells with inhibited complex I
Description: (§1) Measurement of mitochondrial respiration is performed in a high-resolution oxygraph (Oxygraph-2k, Oroboros Instruments, Innsbruck, Austria) at a constant temperature of 37° C. Isolated human platelets, white blood cells, fibroblasts, human heart muscle fibers or other cell types containing live mitochondria are suspended in a 2 mL glass chamber at a concentration sufficient to yield oxygen consumption in the medium of ≥10 pmol O2 s^−1 mL^−1.
(1) Assay for Enhancement of Mitochondrial Energy Producing Function in Cells with Inhibited Respiratory Complex I
Cells are placed in a buffer containing 110 mM sucrose, HEPES 20 mM, taurine 20 mM, K-lactobionate 60 mM, MgCl2 3 mM, KH2PO4 10 mM, EGTA 0.5 mM, BSA 1 g/l, pH 7.1. […] Compounds dissolved in DMSO are titrated in a range of 10 μM to 10 mM final concentration. Subsequently, cell membranes are permeabilised with digitonin (1 mg/1*10^6 plt) to allow entry of extracellularly released energy substrate or cell impermeable energy substrates. After stabilized respiration, Succinate 10 mM is added as a reference to enable respiration downstream of complex I. After the respiration stabilized the experiment is terminated by addition of Antimycin at final concentration 1 μg/mL and any residual non-mitochondrial oxygen consumption is measured. An increase in respiration rate in the described protocol is tightly coupled to ATP synthesis by oxidative phosphorylation unless cells are uncoupled (i.e. proton leak without production of ATP). Uncoupling is tested for by addition of the ATP synthase inhibitor oligomycin (1-2 μg mL^−1) in a protocol 3 where the extent of uncoupling corresponds to the respiratory rate following oligomycin addition.

intact cells [2] = experiment: Screening assay (3): assay to assess uncoupling in intact cells; format: cell-based, human; design: key: graded either +, ++ or +++ in increasing order of potency; graded either +, ++ or +++ in increasing order of potency; graded either +, ++ or +++ in increasing order of potency; (+): Brackets [( )] indicate an intermediate effect; (++): Brackets [( )] indicate an intermediate effect; (+++) is between ++ and +++; settings: for Convergent (Routine): increase in mitochondrial oxygen consumption induced by the compound; for Uncoupling: level of oxygen consumption after addition of oligomycin
Description: Measurement of mitochondrial respiration is performed in a high-resolution oxygraph (Oxygraph-2k, Oroboros Instruments, Innsbruck, Austria) at a constant temperature of 37° C. […] In the third protocol, the same buffer as described above is used. […] Subsequently, the ATP-synthase-inhibitor Oligomycin is added. A reduction in respiration is a measure of how much of the oxygen consumption that is coupled to ATP synthesis. No, or only a slight, reduction indicate that the compound is inducing a proton leak over the inner mitochondrial membrane. The uncoupler FCCP is then titrated to induce maximum uncoupled respiration. […] The experiment is terminated by the addition of 1 μg/mL of the complex III inhibitor Antimycin to measure non-mitochondrial oxygen consumption.

intact cells [3] = experiment: Screening assay (2): enhancement and inhibition of mitochondrial energy producing function in intact cells (FCCP uncoupled); format: cell-based, human; design: key to Convergent (FCCP): graded either +, ++ or +++ in increasing order of potency; graded either +, ++ or +++ in increasing order of potency; graded either +, ++ or +++ in increasing order of potency; (+): Brackets [( )] indicate an intermediate effect; (++): Brackets [( )] indicate an intermediate effect; (+++) is between ++ and +++; settings: for Convergent (FCCP): increase in mitochondrial oxygen consumption induced by the compound, screening assay 2 (uncoupled conditions); for Toxicity: lowest concentration during compound titration at which a decrease in oxygen consumption is seen, screening assay 2
Description: as §1
(2) Assay for Enhancement and Inhibition of Mitochondrial Energy Producing Function in Intact Cells
In the second protocol the same buffer is used as described above. After basal respiration is established, the mitochondrial uncoupler FCCP is added at a concentration of 2 nM to increase metabolic demand.

intact cells [4] = experiment: Assays exemplified in the patent (not specified further) for known succinate esters; format: cell-based
From the text: I. Assays for Evaluating Enhancement and Inhibition of Mitochondrial Energy Producing Function in Intact Cells
Four Typical Evaluation Protocols in Intact Cells are Utilized.

intact human platelets [5] = experiment: Intervention on metformin- or rotenone-induced lactate production with cell-permeable succinate prodrugs; format: cell-based; settings: for effect on rotenone-induced lactate production: 2 μM rotenone, repeated additions of 250 μM; for effect on lactate production of metformin-incubated cells: 10 mM metformin, additions of 250 μM each 30 minutes
Description: Lactate production of intact human platelets was determined in PBS containing 10 mM glucose.
(§2) Lactate levels are determined every 2 h (or more frequent eg every 30 min) using the Lactate Pro™ 2 blood lactate test meter (Arkray, Alere AB, Lidingö, Sweden) or similar types of measurements. Incubation is performed at 37° C. pH is measured at start, after 4 and after 8 h (or more frequently) of incubation using a Standard pH Meter, e.g. PHM210 (Radiometer, Copenhagen, Denmark). Drug candidates are added to the assay from start or following 30-60 min at concentrations within the range 10 μM-5 mM. […] In order to evaluate the specificity of the drug candidate, it is also tested in combination with a down-stream inhibitor of respiration such as the complex III inhibitor Antimycin at 1 μg/mL, which should abolish the effect of the drug candidate and restore the production of lactate. The use of antimycin is therefore also a control for undue effects of drug candidates on the lactate producing ability of the cells used in the assay. (See e.g. FIGS. 9, 10 and 11).
Lactate levels were measured in intervals of 30 min with the onset of the experiment. Additionally, pH was measured prior to the first addition of vehicle (dmso, control), the different cell-permeable succinate prodrugs (NV118, NV189, NV241) or succinate and at the end of the experiment.

[6] = system: permeabilized human platelets
Description: (§3) Real-time respirometric measurements were performed using high-resolution oxygraphs (Oxygraph-2k, Oroboros Instruments, Innsbruck, Austria). The experimental conditions during the measurements were the following: 37° C., 2 mL active chamber volume and 750 rpm stirrer speed. […] For data recording, DatLab software version 4 and 5 were used (Oroboros Instruments, Innsbruck, Austria). Settings, daily calibration and instrumental background corrections were conducted according to the manufacturer's instructions. […] Lactate production of intact human platelets was determined in PBS containing 10 mM glucose. All measurements were performed at a platelet concentration of 200×10^6 cells per mL or a PBMC concentration of 5×10^6 cells per mL.
(§4) All respiratory, lactate and pH data are expressed as mean±SEM. Ratios are plotted as individuals and means. One-way ANOVA was used for one-factor comparison of three or more groups (concentration of drugs) and two-way mixed model ANOVA was used for two-factor comparison (time and concentration of drugs/treatment) of three or more groups. Post-hoc tests to compensate for multiple comparisons were done according to Holm-Sidak. Correlations were expressed as r^2 and P-values. […]
(§5) In order to investigate the specific target of biguanide toxicity, a protocol was applied using digitonin permeabilization of the blood cells and sequential additions of respiratory complex-specific substrates and inhibitors in MiR05 medium. […] Maximal uncoupled respiratory electron transport system capacity supported by convergent input through complex I and II (ETSCI+II) was evaluated by subsequent titration with the protonophore carbonyl-cyanide p-(trifluoromethoxy) phenylhydrazone (FCCP). […] Complex IV activity was calculated by subtracting the sodium azide value from the TMPD value. With exception of complex IV activity, all respiratory states were measured at steady-state and corrected for ROX. Complex IV activity was measured after ROX determination and not at steady-state.

intact human platelets [7] = experiment: Effect of metformin and phenformin on lactate production and pH of intact human platelets; format: cell-based; settings: metformin 1 and 10 mM, phenformin 0.5 mM, rotenone 2 μM
Description: as §2
Incubation was performed at 37° C. at a stirrer speed of 750 rpm, and pH was measured at start, after 4 and after 8 h of incubation (n=4) using a PHM210 Standard pH Meter (Radiometer, Copenhagen, Denmark).

[8] = patients; cited from earlier work
[9] = system: permeabilized human platelets; experiment: cells; settings: Platelet, read-out: IC50 for inhibition of OXPHOSCI
Description: as §3, §4, §5

| Structure (SMILES) | CII (plasma) (Intact human blood cells) | CII [1] | Convergent (Routine) (intact cells [2]) | Uncoupling (intact cells [2]) | Convergent (FCCP) (intact cells [3]) | Toxicity (intact cells [3]) [mM] | other results |
| --- | --- | --- | --- | --- | --- | --- | --- |
| CCC(=O)N[C@@H](CSC(=O)CCC(=O)O)C(=O)O [01-041, (R)-4-(2-carboxy-2-propionamidoethylthio)-4-oxobutanoic acid] | + | ++ | + | (+) | +++ | 5 | – |
| CC(=O)NCCSC(=O)CCC(=O)O [01-108, 4-(2-acetamidoethylthio)-4-oxobutanoic acid] | (+) | (++) | ++ | + | ++ | 10 | – |
| CCC(=O)NCCSC(=O)CCC(=O)O [01-114, 4-oxo-4-(2-propionamidoethylthio)butanoic acid] | + | ++ | +++ | (+) | ++ | 10 | – |
| CCC(=O)N[C@@H](CSC(=O)CCC(=O)SC[C@H](NC(=O)CC)C(=O)N(CC)CC)C(=O)N(CC)CC [01-185, S,S-bis((R)-3-(diethylamino)-3-oxo-2-propionamidopropyl) butanebis(thioate)] | + | + | (+) | (+) | + | 2 | – |
| CC(=O)NCC(C)(C)SC(=O)CCC(=O)O [01-188, 4-(1-acetamido-2-methylpropan-2-ylthio)-4-oxobutanoic acid] | + | + | +++ | (+) | +++ | 5 | – |
| CCN(CC)C(=O)COCCSC(=O)CCC(=O)O [01-193, 4-(2-(2-(diethylamino)-2-oxoethoxy)ethylthio)-4-oxobutanoic acid] | (+) | + | (++) | + | + | 5 | – |
| CCC(=O)N[C@@H](CSC(=O)CCC(=O)SC[C@H](NC(=O)CC)C(=O)OC)C(=O)OC [01-205, (R)-methyl 3-(4-((R)-3-methoxy-3-oxo-2-propionamidopropylthio)-4-oxobutanoylthio)-2-propionamidopropanoate] | + | ++ | +++ | (+) | ++ | 5 | – |
| CCOC(=O)CCC(=O)OCC [Diethyl succinate] | – | – | – | – | – | – | activity in the assays exemplified (intact cells [4]): inactive |
| CC(=O)OCOC(=O)CCC(=O)OCOC(C)=O [NV118] | – | – | – | – | – | – | effect on rotenone-induced lactate production (intact human platelets [5]): attenuated; effect on lactate production of metformin-incubated cells (intact human platelets [5]): significantly decreased |
| CC(=O)OC(C)OC(=O)CCC(=O)OC(C)OC(C)=O (stereo not drawn) [NV189] | – | – | – | – | – | – | effect on rotenone-induced lactate production (intact human platelets [5]): attenuated; also recorded: brought back to normal; effect on lactate production of metformin-incubated cells (intact human platelets [5]): significantly decreased |
| CC(=O)OCOC(=O)CCC(=O)OC(C)OC(C)=O (stereo not drawn) [NV241] | – | – | – | – | – | – | effect on rotenone-induced lactate production (intact human platelets [5]): attenuated; effect on lactate production of metformin-incubated cells (intact human platelets [5]): significantly decreased |
| COC(=O)CCC(=O)OC [dimethyl succinate] | – | – | – | – | – | – | activity in the assays exemplified (intact cells [4]): inactive |
| COC(=O)CCC(=O)O [monomethyl succinate] | – | – | – | – | – | – | activity in the assays exemplified (intact cells [4]): inactive |
| [H]/N=C(/N)N/C(=N/[H])NCCc1ccccc1 [phenformin] | – | – | – | – | – | – | effect on OXPHOSCI, OXPHOSCI+II and ETSCI+II [6]: inhibited; potency of inhibition of OXPHOSCI relative to metformin [6]: 20 fold; lactate produced over 8 h of treatment compared to control (intact human platelets [7]): significantly more lactate; incidence of lactic acidosis [8]: 4 cases per 10000 treatment-years; IC50 [9]: 58 µM |
| O=C(O)CCC(=O)O [succinate] | – | – | – | – | – | – | effect on lactate production of metformin-incubated cells (intact human platelets [5]): did not reduce; also recorded: did not change this |
